Data from paper PMC5124248, “Antitumor activity of TY-011 against gastric cancer by inhibiting Aurora A, Aurora B and VEGFR2 kinases” (Journal of Experimental & Clinical Cancer Research : CR, 2016).

Tested on: human MGC-803 xenograft
Assay: Antitumor activity in vivo, MGC-803 xenograft in nude mice
Set-up: species or system BALB/c nu/nu mice
Conditions: 50 mg/kg intraperitoneally twice a week
Method: The animals were housed in specific pathogen-free (SPF) conditions at Key Laboratory of Brain Functional Genomics, Ministry of Education, and were acclimatized for a week prior to use. […] When the tumors reached a mean group size of 100 ~ 150 mm^3, the mice were randomized into control and treatment groups to receive treatment accordingly. […] The tumor growth was recorded with the measurement of length (L) and width (W) by caliper every other day, and calculated as tumor volume (V) = L × W^2/2. Meanwhile, the body weights of mice were recorded. The tumor volume at day n was expressed as relative tumor volume (RTV) according to the following formula: RTV% = (TVn/TV0) ×100%, where TVn is the tumor volume at day n and TV0 is the tumor volume at day 0. The therapeutic effect of treatment was calculated with formula T/C (%) = mean RTV of the treated group/mean RTV of the control group × 100%. […] The tumor regression of individual mouse was defined as the tumor volume at the end was less than the tumor volume when treatment was initiated.

## CCc1c2c(nc3ccc(OC(=O)N4CCC(N5CCCCC5)CC4)cc13)-c1cc3c(c(=O)n1C2)COC(=O)[C@]3(O)CC [Irinotecan, reference compound]
  T/C (%): 8.04%
By tumor weight
  Inhibition rate (%): 96.2%
Mean ± SEM
  Body weight (g) End: 21.4 ± 0.2 g
Mean ± SEM, control 0.79 g
  Tumor weight: 0.03 ± 0.01 g
